According to ChEMBL document CHEMBL3822417, “Predictive proteochemometric models for kinases derived from 3D protein field-based descriptors” (Medchemcomm, 2016):

Legend:
[1] = biological target: Serine/threonine-protein kinase 10 (Homo sapiens, UniProt O94804); assay: Inhibition of STK10 (unknown origin)
[2] = biological target: RAC-beta serine/threonine-protein kinase (Homo sapiens, UniProt P31751); assay: Inhibition of AKT2 (unknown origin)
Sequence of RAC-beta serine/threonine-protein kinase (P31751 whole entry): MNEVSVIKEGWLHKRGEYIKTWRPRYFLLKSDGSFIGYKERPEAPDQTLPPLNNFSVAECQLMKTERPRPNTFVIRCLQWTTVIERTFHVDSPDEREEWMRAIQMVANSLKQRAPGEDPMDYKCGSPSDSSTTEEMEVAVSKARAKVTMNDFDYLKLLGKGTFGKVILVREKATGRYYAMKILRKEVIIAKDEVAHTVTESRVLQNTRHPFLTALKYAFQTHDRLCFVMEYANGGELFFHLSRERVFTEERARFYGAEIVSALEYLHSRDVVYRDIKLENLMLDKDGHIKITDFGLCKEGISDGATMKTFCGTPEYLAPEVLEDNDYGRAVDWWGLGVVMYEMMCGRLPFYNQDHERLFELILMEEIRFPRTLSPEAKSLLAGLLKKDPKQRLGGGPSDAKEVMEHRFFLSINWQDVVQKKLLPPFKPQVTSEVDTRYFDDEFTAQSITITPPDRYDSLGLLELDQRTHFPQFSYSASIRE

Sequence of Serine/threonine-protein kinase 10 (O94804 whole entry): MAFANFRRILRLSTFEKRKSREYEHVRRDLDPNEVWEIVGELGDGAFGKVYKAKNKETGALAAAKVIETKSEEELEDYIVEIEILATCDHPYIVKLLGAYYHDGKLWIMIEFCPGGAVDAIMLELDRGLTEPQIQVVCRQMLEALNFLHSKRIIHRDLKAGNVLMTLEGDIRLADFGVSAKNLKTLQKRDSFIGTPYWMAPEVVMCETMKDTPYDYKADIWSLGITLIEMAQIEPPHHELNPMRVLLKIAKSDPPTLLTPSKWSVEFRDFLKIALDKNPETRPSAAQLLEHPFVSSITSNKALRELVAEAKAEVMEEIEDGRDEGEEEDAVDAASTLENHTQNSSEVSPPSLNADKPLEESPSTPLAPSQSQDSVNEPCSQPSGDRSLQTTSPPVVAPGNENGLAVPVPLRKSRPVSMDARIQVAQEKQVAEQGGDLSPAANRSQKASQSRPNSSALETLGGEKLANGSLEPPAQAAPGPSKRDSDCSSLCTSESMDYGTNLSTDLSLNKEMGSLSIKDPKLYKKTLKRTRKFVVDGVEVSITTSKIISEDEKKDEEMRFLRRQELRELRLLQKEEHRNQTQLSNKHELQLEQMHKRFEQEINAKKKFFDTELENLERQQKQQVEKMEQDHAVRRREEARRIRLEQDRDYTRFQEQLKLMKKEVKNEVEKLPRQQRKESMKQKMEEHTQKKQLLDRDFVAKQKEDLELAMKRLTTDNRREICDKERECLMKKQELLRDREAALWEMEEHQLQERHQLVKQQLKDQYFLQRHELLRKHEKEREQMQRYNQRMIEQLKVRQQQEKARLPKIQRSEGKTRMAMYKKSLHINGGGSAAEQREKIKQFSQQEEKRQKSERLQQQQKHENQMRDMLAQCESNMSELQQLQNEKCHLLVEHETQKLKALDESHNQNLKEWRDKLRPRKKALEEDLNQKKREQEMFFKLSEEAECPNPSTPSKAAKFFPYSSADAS

Ki [1] | Ki [2] | Compound
> 10 µM |  | Oc1ccc(-c2nc(-c3ccncc3)c(-c3ccc(F)cc3)[nH]2)cc1 [SB-202190]
 | > 10 µM | COc1cc(N2CCC(N3CCN(C)CC3)CC2)ccc1Nc1ncc(Cl)c(Nc2ccccc2S(=O)(=O)C(C)C)n1 [TAE-684]
